Experimental data as given in US11781118B2, “Preparation of L-amino acid deaminase mutant and application thereof” (Jiangnan University, priority 2020, dated 2023).
Where a chain is given by its changes, count along the chain named. Names may count otherwise.

Experiments:
CC(C)[C@H](N)C(=O)O = assay: Kinetic parameters with L-valine as substrate, parent enzyme PmirLAAD WT; format: biochemical, Proteus mirabilis; details: other: L-valine substrate, 25° C., initial rate of α-ketoisovaleric acid
Experimental: (§1) In order to evaluate the mutants, kinetic parameters of the mutant parent PmirLAAD^WT and the mutants PmirLAAD^M1, PmirLAAD^M2, PmirLAAD^M3 and PmirLAAD^M4 at 25° C. were determined in the disclosure.
(§2) kcat/Km was calculated based on the initial rate of α-ketoisovaleric acid produced from hydrolyzed L-valine substrates with different concentrations determined at 25° C. Product inhibition of the parent enzyme and the mutants was determined by a product inhibition constant determination experiment in the transformation process. A PmirLAAD^WT parent enzyme strain and mutant strains were respectively added to a reaction solution with the final concentration of wet cells of 10 g/L. 60 mM L-valine was used as the substrate, 10-100 mM α-ketoisovaleric acid was added to the transformation system, the initial reaction rate V0 was determined after about 30 min of reaction, the maximum reaction rate Vmax was determined after about 2 h of reaction, and the product inhibition constant KPI was calculated according to the following formula: […]

[1] = tested on: Proteus mirabilis L-amino acid deaminase (PmirLAAD) mutant M4, S98A/T105A/S106A/L341A, SEQ ID NO: 15; assay: Product inhibition constant determination, mutant M4; format: biochemical
Experimental: as §1, §2
(§3) V0: initial reaction rate, Vmax: maximum reaction rate, Km: Michaelis constant, [S]: substrate concentration, [P]: product concentration, KPI: product inhibition constant.

[2] = tested on: Proteus mirabilis L-amino acid deaminase (PmirLAAD) mutant M1, S98A, SEQ ID NO: 3; assay: Product inhibition constant determination, mutant M1; format: biochemical; details: M1 relative to WT
Experimental: as §1, §2, §3

[3] = molecular target: Proteus mirabilis L-amino acid deaminase (PmirLAAD), wild-type parent, SEQ ID NO: 1 (Proteus mirabilis, UniProt Q51890); assay: Product inhibition constant determination, parent enzyme PmirLAAD WT; format: biochemical; details: relative to WT
Sequence of Proteus mirabilis L-amino acid deaminase (PmirLAAD), wild-type parent, SEQ ID NO: 1 (Q51890 entry or part of it): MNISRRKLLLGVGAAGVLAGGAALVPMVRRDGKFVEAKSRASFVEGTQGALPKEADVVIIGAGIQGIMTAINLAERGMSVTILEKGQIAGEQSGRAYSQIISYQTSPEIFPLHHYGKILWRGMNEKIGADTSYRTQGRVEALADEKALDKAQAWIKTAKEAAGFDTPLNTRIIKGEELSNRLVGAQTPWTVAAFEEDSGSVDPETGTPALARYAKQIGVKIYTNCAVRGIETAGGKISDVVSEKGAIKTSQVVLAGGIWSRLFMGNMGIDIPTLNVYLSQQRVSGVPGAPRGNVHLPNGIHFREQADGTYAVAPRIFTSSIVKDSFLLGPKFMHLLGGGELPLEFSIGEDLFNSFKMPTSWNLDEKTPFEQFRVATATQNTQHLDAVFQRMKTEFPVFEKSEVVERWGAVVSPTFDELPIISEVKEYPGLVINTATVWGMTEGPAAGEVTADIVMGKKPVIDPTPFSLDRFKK
Experimental: as §1, §2, §3

[4] = tested on: Proteus mirabilis L-amino acid deaminase (PmirLAAD) mutant M3, S98A/T105A/S106A, SEQ ID NO: 13; assay: Product inhibition constant determination, mutant M3; format: biochemical; details: M3 relative to WT
Experimental: as §1, §2, §3

[5] = molecular target: Proteus mirabilis L-amino acid deaminase (PmirLAAD) mutant M2, S98A/T105A, SEQ ID NO: 11 (Proteus mirabilis, UniProt Q51890, S98A/T105A); assay: Product inhibition constant determination, mutant M2; format: biochemical; details: M2 relative to WT
Sequence of Proteus mirabilis L-amino acid deaminase (PmirLAAD) mutant M2, S98A/T105A, SEQ ID NO: 11 (Q51890 whole entry S98A/T105A): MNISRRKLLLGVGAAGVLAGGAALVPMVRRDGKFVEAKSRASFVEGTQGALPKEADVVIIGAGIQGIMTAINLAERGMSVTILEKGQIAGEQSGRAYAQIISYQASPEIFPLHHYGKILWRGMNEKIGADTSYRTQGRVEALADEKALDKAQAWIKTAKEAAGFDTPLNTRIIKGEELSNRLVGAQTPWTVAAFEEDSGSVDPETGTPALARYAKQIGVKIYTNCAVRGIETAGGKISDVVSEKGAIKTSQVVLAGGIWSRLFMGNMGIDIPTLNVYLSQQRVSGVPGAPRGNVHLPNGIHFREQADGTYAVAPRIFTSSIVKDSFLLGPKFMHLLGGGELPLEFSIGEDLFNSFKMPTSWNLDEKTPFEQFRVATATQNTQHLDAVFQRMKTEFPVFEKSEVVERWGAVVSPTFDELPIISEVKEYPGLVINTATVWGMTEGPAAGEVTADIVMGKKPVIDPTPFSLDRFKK
Experimental: as §1, §2, §3

[6] = molecular target: Proteus mirabilis L-amino acid deaminase (PmirLAAD) mutant M4, S98A/T105A/S106A/L341A, SEQ ID NO: 15 (Proteus mirabilis, UniProt Q51890, L341A/S106A/S98A/T105A); assay: Kinetic parameters with L-valine as substrate, mutant M4; format: biochemical; details: M4 compared with parent enzyme, "increased by", 25° C.
Sequence of Proteus mirabilis L-amino acid deaminase (PmirLAAD) mutant M4, S98A/T105A/S106A/L341A, SEQ ID NO: 15 (Proteus mirabilis, UniProt Q51890, L341A/S106A/S98A/T105A) (Q51890 whole entry S98A/T105A/S106A/L341A): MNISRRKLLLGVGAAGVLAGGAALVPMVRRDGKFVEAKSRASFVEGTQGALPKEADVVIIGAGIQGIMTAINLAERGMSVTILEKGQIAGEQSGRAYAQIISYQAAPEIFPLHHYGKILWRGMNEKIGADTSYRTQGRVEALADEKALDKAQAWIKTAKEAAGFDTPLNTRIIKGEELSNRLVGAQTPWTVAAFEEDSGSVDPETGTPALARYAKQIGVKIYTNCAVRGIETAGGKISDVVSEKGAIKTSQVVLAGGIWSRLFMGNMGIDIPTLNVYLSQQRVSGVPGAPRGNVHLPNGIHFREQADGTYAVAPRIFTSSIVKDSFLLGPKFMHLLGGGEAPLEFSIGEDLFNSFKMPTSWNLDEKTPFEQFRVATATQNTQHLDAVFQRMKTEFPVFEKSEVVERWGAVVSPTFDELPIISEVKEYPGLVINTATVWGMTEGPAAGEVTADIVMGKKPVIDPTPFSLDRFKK
Experimental: as §1, §2

[7] = Shake flask screening of mutants: whole-cell transformation of L-valine, α-ketoisovaleric acid determined by HPLC; format: cell-based, E. coli BL21; details: transformation temperature 25° C., pH 8.0, 24 h
Experimental: Preparation of sample for determining α-ketoisovaleric acid content by HPLC: 1 mL of a transformed transformation solution is centrifuged at 12000 rpm for 5 min, the supernatant is diluted and filtered through a 0.45 μm filtration membrane, and the filtrate is for liquid chromatography.
Determination of α-ketoisovaleric acid content by HPLC: a waters high performance liquid chromatograph (equipped with a UV-visible detector) and a Bio-Rad Aminex HPX-87H (300×7.8 mm, 9 μm) chromatographic column are used, and the mobile phase is dilute sulfuric acid with the concentration of 2.5 mmol/L. The mobile phase is filtered through a 0.22 μm filtration membrane; the filtrate is subjected to ultrasonic degassing; and detection is performed at the flow rate of 0.6 mL/min, the column temperature of 35° C. and the ultraviolet detection wavelength of 210 nm.
(2) Shake flask screening of single mutants: The obtained 4 mutant strains and a strain containing wild-type L-amino acid deaminase were respectively inoculated into an LB seed medium, and cultured at 200 rpm at 37° C. for about 10 h. The products were respectively inoculated into a shake flask fermentation medium with the inoculum size of 5% of the medium by volume, and cultured at 200 rpm at 37° C. until OD600 was about 0.8. IPTG with the final concentration of 0.04 mmol/L was added for induction, and the induction was performed at 200 rpm at 25° C. for 14 h. The product was centrifuged at 6000 rpm for 8 min to collect bacterial cells. The bacterial cells collected by centrifugation were used for later transformation experiments.
Transformation conditions: transformation temperature 25° C., reaction pH 8.0, and transformation time 24 h.
The yield of α-ketoisovaleric acid of the transformation solution after the completion of the transformation was determined by HPLC. Finally, S98A produced α-ketoisovaleric acid at the highest yield.

Proteus mirabilis L-amino acid deaminase (PmirLAAD), wild-type parent, SEQ ID NO: 1 (Proteus mirabilis)
kcat/Km (CC(C)[C@H](N)C(=O)O): 4.33 M⁻¹ s⁻¹

CC(C)C(=O)C(=O)O [α-ketoisovaleric acid]
increase of product inhibition constant ([1]; M4 compared with parent enzyme, "increased by"): 5.7 times
Times of change (KPI) ([1]; M4 relative to WT): 6.7
Times of change (KPI) [2]: 2.6
Times of change (KPI) [3]: 1
Times of change (KPI) [4]: 4.6
Times of change (KPI) [5]: 3.9

CC(C)[C@H](N)C(=O)O [L-valine]
increase of kcat/Km (catalytic efficiency) [6]: 5.2 times

B1: PmirLAAD^S98A/T105A/S106A (protein)
chain: MNISRRKLLLGVGAAGVLAGGAALVPMVRRDGKFVEAKSRASFVEGTQGALPKEADVVIIGAGIQGIMTAINLAERGMSVTILEKGQIAGEQSGRAYAQIISYQAAPEIFPLHHYGKILWRGMNEKIGADTSYRTQGRVEALADEKALDKAQAWIKTAKEAAGFDTPLNTRIIKGEELSNRLVGAQTPWTVAAFEEDSGSVDPETGTPALARYAKQIGVKIYTNCAVRGIETAGGKISDVVSEKGAIKTSQVVLAGGIWSRLFMGNMGIDIPTLNVYLSQQRVSGVPGAPRGNVHLPNGIHFREQADGTYAVAPRIFTSSIVKDSFLLGPKFMHLLGGGELPLEFSIGEDLFNSFKMPTSWNLDEKTPFEQFRVATATQNTQHLDAVFQRMKTEFPVFEKSEVVERWGAVVSPTFDELPIISEVKEYPGLVINTATVWGMTEGPAAGEVTADIVMGKKPVIDPTPFSLDRFKK
α-ketoisovaleric acid [7]: 60.6 g/L

B2: PmirLAAD^S98A/S106A/L341A (protein)
chain: B1 chain with A105T, L341A
α-ketoisovaleric acid [7]: 53.5 g/L

B3: PmirLAAD^S98A/T105A/L341A (protein)
chain: B1 chain with A106S, L341A
α-ketoisovaleric acid [7]: 56.1 g/L

B4: PmirLAAD^T105A/S106A/L341A (protein)
chain: B1 chain with A98S, L341A
α-ketoisovaleric acid [7]: 59.6 g/L
